# Results as given in patent publication US9192601B2, “Methods for enhancing muscle performance and tone” (Salk Institute for Biological Studies, priority 2006, dated 2015).
# “Also recorded” adds a separate entry of the source.
# Columns and labels:
# [1] = system: myoglobin, UCP3, cytochrome c (CYCS) and SCDl; assay: Western blotting of oxidative biomarkers in quadriceps; type: in vivo, mouse; settings: combined exercise and GW1516 vs either alone
# Procedure: In addition to gene expression, protein expression was determined for selective oxidative biomarkers including myoglobin, UCP3, cytochrome c (CYCS) and SCDl, using Western blotting. Protein homogenates were prepared from quadriceps muscle, separated by SDS polyacrylamide gel electrophoresis, transferred to blotting membrane and probed with antibodies specific for myoglobin (Dako), UCP3 (Affinity Bioreagents), cytochrome c (Santacruz) SCDl (Santacruz), and, as a loading control, tubulin (Sigma).
# [2] = Muscle triglyceride (mTG) content; type: in vivo, mouse
# Procedure: Altered triglycerides can be used to access changes in muscle oxidative capacity. Muscle triglyceride (mTG) content was measured as previously described (Wang et al., PLoC Biol, 2:e294, 2004) using a kit from Thermo Electron Corporation. […] Gene and/or protein expression that is induced by a combination of exercise and drug treatment (e.g., PPARδ agonist administration) but not by either input alone is believed to be a new discovery. This type of response can be used to further characterize the intersection of pharmacologic and physiologic genetic networks. For example, one or more genes and/or proteins uniquely regulated by one or more drugs {e.g., PPARδ agonists) and exercise can be used as markers, for instance, of illicitly boosting performance in professional and/or amateur athletes.
# AMPK = assay: Western blot of phospho-AMPK in quadriceps; type: in vivo, mouse; settings: sedentary or trained muscles
# Description: Exercise training is known to activate kinases, such as p44/42 MAPK and AMPK, which regulate gene expression in skeletal muscle (Chen et al., Diabetes, 52:2205-12, 2003; Goodyear et al., Am. J. Physiol, 271:[…]-8, 1996). AMPK affects skeletal muscle gene expression and oxidative metabolism (Chen et al., Diabetes. 52: 2205-12, 2003, Reznick et al., J. Physiol. 574: 33-9, 2006). The interaction between exercise-regulated kinases and PPARδ signaling is described in this Example. The levels of phospho-p44/42 MAPK and phospho-AMPK a subunit and total AMPK were determined in protein homogenates of quadriceps muscle by Western blot. Antibodies specific for phospho-p44/42 MAPK, phospho- and total-AMPK αl antibodies were obtained from Cell Signaling. The phospho-specific AMPK αl antibody recognizes the key activating threonine in the activation loop.
# epididymal white adipose = assay: Epididymal fat to body weight ratio and H&E staining of white adipose; type: in vivo, mouse; settings: GW1516 in combination with exercise
# Procedure: Hematoxylin and eosin (H&E) staining of white adipose tissue paraffin sections was performed as previously described (Wang et al., PLoS Biol., 2:e294, 2004; Wang et al., Cell, 113:159-70, 2003).
# quadriceps muscle = assay: Real time quantitative PCR of gene expression in quadriceps muscle; type: in vivo, mouse
# Procedure: Animals were euthanized by carbon dioxide asphyxiation 72 hours after the final treatment. Gastrocnemius and quadriceps muscles were isolated, frozen and stored at −80° C. for future analysis. Total RNA was prepared from quadriceps muscle using TRIzoL™ reagent (Invitrogen, Carlsbad, Calif., USA) in conformance with manufacturer's instructions. Real time quantitative PCR (QPCR) was used to determine expression levels of uncoupling protein 3 (UCP3), muscle carnitine palmitoyl transferase I (mCPT I) and pyruvate dehydrogenase kinase 4 (PDK4) using primers known to those of ordinary skill in the art.
# In addition to affecting the contractile apparatus of skeletal muscle, exercise training also increases skeletal muscle mitochondrial density (e.g., Freyssenet et al., Arch. Physiol. Biochem., 104(2): 129-141, 1996). […] Mice in all groups were acclimated to moderate treadmill running and basal running endurance was determined as described in Example 1. Thereafter, mice in the exercise-trained groups received four weeks (5 days/week) of exercise training on a treadmill inclined at 5 degrees. […] At the end of four weeks, all exercise-trained mice were running for 50 min/day at 18 m/min. […] Unless otherwise noted, V, GW, Tr and GW+Tr subjects described in this and the examples below were similarly treated. At the end of the drug treatment and/or training protocol (Week 5) 6 mice per group were subjected to the running test. […] RNA was prepared real time quantitative PCR performed as described in Example 1.
# [3] = system: type I (slow oxidative) muscle fibers; assay: Meta-chromatic staining of gastrocnemius fiber types; type: in vivo, mouse
# Description: In this assay, muscle fibers with high ATPase activity {e.g., type I (slow oxidative) muscle fibers) are darkly stained.
# myosin heavy chain (MHC) = assay: Myosin heavy chain (MHC) expression; type: in vivo, mouse
# Procedure: In addition to its effects on the fiber type, exercise training increased skeletal muscle mitochondrial biogenesis, which can be measured as a function of mitochondrial DNA expression levels using quantitative real time PCR (QPCR). Mitochondrial DNA expression levels were determined in muscles of V, GW, Tr, and GW+Tr subjects using quantitative real time PCR. […] Such an increase is known to contribute to enhanced endurance capacity (e.g., Holloszy, Med. Sci. Sports 7:155-64, 1975). Slow-twitch and fast-twitch muscle fiber types also can be distinguished by myosin isoform expression (Gauthier and Lowey, J. Cell Biol. 81:10-25, 1979; Fitzsimons and Hoh, Biochem. J. 193:229-33, 1981). […] Therefore, at least at the transcriptional level, the PPARδ agonist was capable of inducing some proteins characteristic of a slow-twitch muscle fiber phenotype.
# primary muscle cells = assay: Gene expression in wild type and PPARδ null primary muscle cells; type: cell-based, mouse; settings: wild type vs PPARδ null cells
# Procedure: Primary muscle cells were isolated from wild type and PPARδ null mice as previously described (Rando and Blau, J. Cell. Biol. 125(6): 1275-87, 1994). […] RNA expression of UCP3, PDK4, LPL, and HSL was determined using real time quantitative PCR as described in Example 1.
# To test this possibility, wild-type and PPARδ null primary muscle cells were used.
structure (smiles),measurement,setting,value
"Cc1cc(SCc2sc(-c3ccc(C(F)(F)F)cc3)nc2C)ccc1OCC(=O)O [GW1516, (2-methyl-4(((4-methyl-2-(4-trifluoromethylphenyl)-1,3-thiazol-5-yl)methyl)sulfanyl)phenoxy)acetic acid]","myoglobin, UCP3, cytochrome c, and SCDl protein expression",[1],robust up regulation
same,exercise-induced increase in muscle triglycerides,[2]; GW1516-treated exercise trained mice,completely reversed
same,mTG content vs vehicle,[2]; sedentary mice,comparable
same,activation of AMPK,AMPK,failed to activate
same,cross-sectional area of the adipocytes,epididymal white adipose,decreased
same,"earliest detection of changes in UCP3, mCPT I, PDK4 expression",quadriceps muscle; 2-5 mg/kg/day,4 days
same,"expression of SCDl, FAS, SREBPIc, FAT/CD36, LPL",quadriceps muscle; GW1516 alone,no response
same,"expression of UCP3, mCPT I, and PDK4","quadriceps muscle; GW1516 alone, four weeks, quadriceps",induced; also recorded: upregulated
same,"expression of SCDl, FAS, SREBPIc, FAT/CD36, LPL",quadriceps muscle; GW1516 combined with exercise,robustly induced
same,"expression of UCP3, mCPT I, and PDK4",quadriceps muscle; GW1516 with exercise vs GW1516 alone,no further induction
same,number of type I muscle fibers in exercised muscle,[3]; GW1516 treatment and exercise training,significantly increased
same,proportion of type I muscle fibers vs vehicle,"[3]; sedentary mice, gastrocnemius",no significant difference
same,increase in proportion of type I fibers vs vehicle-treated sedentary mice,[3]; trained mice,38%
same,MHC I and MHC lib expression,myosin heavy chain (MHC); GW1516 combined with exercise,did not induce additional changes
same,expression of MHC Ha,myosin heavy chain (MHC); sedentary mice,did not alter
same,expression of MHC I,myosin heavy chain (MHC); sedentary mice vs vehicle,increased
same,expression of MHC lib,myosin heavy chain (MHC); sedentary mice vs vehicle,decreased
same,"induction of oxidative genes (UCP3, mCPT I, PDK4)",primary muscle cells,mediated via activation of PPARδ
